Assay results published in US7432365B1, “DNA molecules encoding beta clamp proteins of gram positive bacteria” (priority 1998, dated 2008).

T1: Peak4 (Pol III-L) (Staphylococcus aureus, UniProt P0C1P9)
T1 construct: peak 4 (last peak off Mono Q); endogenous in cells; host or cells: S. aureus strain 4220 lysate, MonoQ peak 4 (partially pure)
T1 sequence (P0C1P9 1-1435): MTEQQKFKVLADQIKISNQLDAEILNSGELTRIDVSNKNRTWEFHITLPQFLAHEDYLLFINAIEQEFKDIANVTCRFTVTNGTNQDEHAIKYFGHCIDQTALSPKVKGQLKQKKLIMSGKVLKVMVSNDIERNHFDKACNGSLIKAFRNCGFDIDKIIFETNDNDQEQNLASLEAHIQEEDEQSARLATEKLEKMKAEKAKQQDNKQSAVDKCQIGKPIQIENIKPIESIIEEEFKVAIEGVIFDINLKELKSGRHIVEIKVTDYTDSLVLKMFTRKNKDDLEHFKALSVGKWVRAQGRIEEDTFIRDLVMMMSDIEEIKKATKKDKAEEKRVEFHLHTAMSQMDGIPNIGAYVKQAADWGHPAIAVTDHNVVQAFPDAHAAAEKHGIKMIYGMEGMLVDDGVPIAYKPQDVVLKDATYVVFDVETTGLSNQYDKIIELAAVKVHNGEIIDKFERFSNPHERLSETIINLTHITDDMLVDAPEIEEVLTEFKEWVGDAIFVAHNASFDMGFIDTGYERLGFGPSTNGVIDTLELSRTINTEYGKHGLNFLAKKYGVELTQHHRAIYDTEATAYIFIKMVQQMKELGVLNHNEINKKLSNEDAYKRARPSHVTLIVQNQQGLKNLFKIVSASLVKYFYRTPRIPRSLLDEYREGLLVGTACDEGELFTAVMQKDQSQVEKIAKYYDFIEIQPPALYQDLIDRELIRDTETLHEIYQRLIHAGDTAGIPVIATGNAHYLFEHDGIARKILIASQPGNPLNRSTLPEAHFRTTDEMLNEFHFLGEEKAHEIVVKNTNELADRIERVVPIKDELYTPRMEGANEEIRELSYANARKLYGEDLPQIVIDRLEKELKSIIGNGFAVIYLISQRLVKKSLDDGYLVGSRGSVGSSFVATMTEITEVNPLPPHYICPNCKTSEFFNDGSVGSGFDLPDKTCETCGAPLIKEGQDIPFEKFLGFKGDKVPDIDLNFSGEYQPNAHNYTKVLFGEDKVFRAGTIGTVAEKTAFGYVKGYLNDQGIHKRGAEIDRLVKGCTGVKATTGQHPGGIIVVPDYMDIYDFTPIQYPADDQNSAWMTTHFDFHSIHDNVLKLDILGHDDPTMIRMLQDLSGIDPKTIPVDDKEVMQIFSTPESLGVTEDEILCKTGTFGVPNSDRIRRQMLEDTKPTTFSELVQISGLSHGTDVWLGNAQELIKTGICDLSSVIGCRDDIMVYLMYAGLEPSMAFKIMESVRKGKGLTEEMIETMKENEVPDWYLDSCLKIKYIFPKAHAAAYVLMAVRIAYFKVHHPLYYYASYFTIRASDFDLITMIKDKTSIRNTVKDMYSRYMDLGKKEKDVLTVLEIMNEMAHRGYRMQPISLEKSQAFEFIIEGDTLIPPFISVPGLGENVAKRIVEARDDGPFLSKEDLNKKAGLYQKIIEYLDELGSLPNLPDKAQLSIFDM

T2: Streptococcus pyogenes δ′ subunit (holB gene product) (Streptococcus pyogenes)
T2 construct: also called delta prime; 6′
T2 chain: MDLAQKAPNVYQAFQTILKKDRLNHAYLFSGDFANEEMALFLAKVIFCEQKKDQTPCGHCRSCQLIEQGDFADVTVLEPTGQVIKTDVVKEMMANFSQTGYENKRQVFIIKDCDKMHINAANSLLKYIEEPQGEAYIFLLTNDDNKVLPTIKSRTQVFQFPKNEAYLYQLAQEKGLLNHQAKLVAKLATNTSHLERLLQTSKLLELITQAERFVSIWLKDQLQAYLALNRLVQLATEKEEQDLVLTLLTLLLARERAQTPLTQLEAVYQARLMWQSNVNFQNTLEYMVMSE

B1: Streptococcus pyogenes δ subunit (holA gene product) (other)
chain: MIAIEKIEKLSKENLGLITLVTGDDIGQYSQLKSRLMEQIAFDKDDLAYSYFDMSEAAYQDAEMDLVSLPFFAEQKVVIFDHLLDITTNKKSFLKEKDLKAFEAYLENPLETTRLIIFAPGKLDSKRRLVKLLKRDALVLEANPLKEAELRTYFQKYSHQLGLGFESGAFDQLLLKSNDDFSQIMKNMAFLKAYKKTGNISLTDIEQAIPKSLQDNIFDLTRLVLGGKIDAARDLIHDLRLSGEDDIKLIAIMLGQFRLFLQLTILARDVKNEQQLVISLSDILGRRVNPYQVKYALKDSRTLSLAFLTGAVKTLIETDYQIKTGLYEKSYLVDIALLKIMTHSQK
notes: also called delta; putative δ

Legend:
[1] = test system: Pol II; details: cited from earlier work
[2] = test system: Peak3 (Pol I); assay: DNA polymerase assay in presence or absence of pCMB, NEM, 0.15 M KCl; format: biochemical, Staphylococcus aureus; details: S. aureus Peak3
Description: (§1) These assays were used in the purification of DNA polymerases from S. aureus cell extracts. Assays contained 2.5 μg activated calf thymus DNA in a final volume of 25 μl replication buffer. An aliquot of the fraction to be assayed was added to the assay mixture on ice followed by incubation at 37° C. for 5 min.
(§2) Next, it was determined which of these peaks of DNA polymerase activity correspond to DNA polymerases 1, I, and III, and which peak is the unidentified DNA polymerase. In the Gram positive bacterium B. subtilis, Pol III is inhibited by pCMB, NEM, and 0.15 M NaCl, Pol II is inhibited by KCl, but not NEM or 0.15 M KCL, and Pol I is not inhibited by any of these treatments (Gass et al., “Further Genetic and Enzymological Characterization of the Three Bacillus subtilis Deoxyribonucleic Acid Polymerases,” J. Biol. Chem., 248:7688-7700 (1973), which is hereby incorporated by reference). […] Peak 3 clearly corresponded to Pol I, because it was not inhibited by NEM, pCMB, or 0.15 M NaCl. Peak 2 correspond to Pol II, because it was not inhibited by NEM, but was inhibited by pCMB and 0.15 M NaCl. Peaks 1 and 4 both had characteristics that mimic Pol III; however, peak 4 elutes on MonoQ at a similar position as Pol III-L expressed in E. coli (see FIG. 2B).

[3] = test system: Peak1 (new polymerase); assay: as above; format: biochemical, Staphylococcus aureus; details: S. aureus Peak1
Description: as §1, §2

[4] = molecular target: T1, Peak4 (Pol III-L); assay: as above; format: biochemical; details: S. aureus Peak4
Description: (§3) These assays were used in the purification of DNA polymerases from S. aureus cell extracts. Assays contained 2.5 μg activated calf thymus DNA in a final volume of 25 μl replication buffer. An aliquot of the fraction to be assayed was added to the assay mixture on ice followed by incubation at 37° C. for 5 min. DNA synthesis was quantitated using DE81 paper as described in Rowen et al., “Primase, the DnaG Protein of Escherichia coli. An Enzyme Which Starts DNA Chains,” J. Biol. Chem., 253:758-764 (1979), which is hereby incorporated by reference.
(§4) Next, it was determined which of these peaks of DNA polymerase activity correspond to DNA polymerases 1, I, and III, and which peak is the unidentified DNA polymerase. In the Gram positive bacterium B. subtilis, Pol III is inhibited by pCMB, NEM, and 0.15 M NaCl, Pol II is inhibited by KCl, but not NEM or 0.15 M KCL, and Pol I is not inhibited by any of these treatments (Gass et al., “Further Genetic and Enzymological Characterization of the Three Bacillus subtilis Deoxyribonucleic Acid Polymerases,” J. Biol. Chem., 248:7688-7700 (1973), which is hereby incorporated by reference).

[5] = test system: Peak2 (Pol II); assay: as above; format: biochemical, Staphylococcus aureus; details: S. aureus Peak2
Description: as §3, §4

[6] = molecular target: Pol III-L (Bacillus subtilis, UniProt P13267); details: Pol III / Pol III-L; cited from earlier work
[7] = molecular target: Pol I (Bacillus subtilis, UniProt O34996); details: cited from earlier work
[8] = molecular target: Staphylococcus aureus beta subunit (dnaN gene product) (Staphylococcus aureus) (UniProt P0A022); assay: cell-based or functional assay
[9] = molecular target: T2, Streptococcus pyogenes δ′ subunit (holB …); assay: gel filtration on Superose 6 of an α-large, τ, δ, δ′ mixture, SDS-PAGE of fractions

Pol III-L, sequence (P13267 whole entry): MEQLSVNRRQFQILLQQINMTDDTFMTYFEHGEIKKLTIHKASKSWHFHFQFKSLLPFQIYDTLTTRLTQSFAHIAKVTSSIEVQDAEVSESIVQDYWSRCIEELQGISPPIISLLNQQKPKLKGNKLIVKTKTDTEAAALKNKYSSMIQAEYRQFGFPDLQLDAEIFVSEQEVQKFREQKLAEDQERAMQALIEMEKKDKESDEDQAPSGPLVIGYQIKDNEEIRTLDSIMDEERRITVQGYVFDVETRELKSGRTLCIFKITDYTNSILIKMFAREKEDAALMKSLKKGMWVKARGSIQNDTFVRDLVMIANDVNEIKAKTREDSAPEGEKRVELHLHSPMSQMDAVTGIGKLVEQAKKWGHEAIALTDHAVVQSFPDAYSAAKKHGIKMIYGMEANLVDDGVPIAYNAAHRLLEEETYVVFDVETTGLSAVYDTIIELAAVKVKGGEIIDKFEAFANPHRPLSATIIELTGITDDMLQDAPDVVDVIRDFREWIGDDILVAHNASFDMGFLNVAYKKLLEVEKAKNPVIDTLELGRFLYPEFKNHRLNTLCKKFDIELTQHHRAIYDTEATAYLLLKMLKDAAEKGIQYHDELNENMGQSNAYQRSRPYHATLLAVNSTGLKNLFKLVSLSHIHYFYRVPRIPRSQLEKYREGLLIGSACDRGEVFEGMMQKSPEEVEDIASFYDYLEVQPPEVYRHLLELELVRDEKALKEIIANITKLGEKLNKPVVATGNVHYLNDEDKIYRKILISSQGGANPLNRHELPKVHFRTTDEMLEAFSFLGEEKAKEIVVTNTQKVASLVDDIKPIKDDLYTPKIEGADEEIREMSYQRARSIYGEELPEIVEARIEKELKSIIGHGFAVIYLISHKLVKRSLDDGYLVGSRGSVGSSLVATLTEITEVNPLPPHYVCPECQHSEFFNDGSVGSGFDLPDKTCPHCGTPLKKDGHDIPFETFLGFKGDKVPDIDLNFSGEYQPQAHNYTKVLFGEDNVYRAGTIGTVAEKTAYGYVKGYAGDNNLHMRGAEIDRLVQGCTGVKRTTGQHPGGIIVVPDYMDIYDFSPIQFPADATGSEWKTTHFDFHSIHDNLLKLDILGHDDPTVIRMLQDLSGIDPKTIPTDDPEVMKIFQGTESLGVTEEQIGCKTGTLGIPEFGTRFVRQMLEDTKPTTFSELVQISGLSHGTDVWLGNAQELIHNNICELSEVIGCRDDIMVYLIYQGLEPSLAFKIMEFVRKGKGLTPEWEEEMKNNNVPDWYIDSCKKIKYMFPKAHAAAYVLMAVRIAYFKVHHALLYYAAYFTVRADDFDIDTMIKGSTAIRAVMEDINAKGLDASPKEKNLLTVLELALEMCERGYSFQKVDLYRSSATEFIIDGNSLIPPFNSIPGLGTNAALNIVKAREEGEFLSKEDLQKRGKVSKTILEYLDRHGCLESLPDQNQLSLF
Pol I, sequence (O34996 whole entry): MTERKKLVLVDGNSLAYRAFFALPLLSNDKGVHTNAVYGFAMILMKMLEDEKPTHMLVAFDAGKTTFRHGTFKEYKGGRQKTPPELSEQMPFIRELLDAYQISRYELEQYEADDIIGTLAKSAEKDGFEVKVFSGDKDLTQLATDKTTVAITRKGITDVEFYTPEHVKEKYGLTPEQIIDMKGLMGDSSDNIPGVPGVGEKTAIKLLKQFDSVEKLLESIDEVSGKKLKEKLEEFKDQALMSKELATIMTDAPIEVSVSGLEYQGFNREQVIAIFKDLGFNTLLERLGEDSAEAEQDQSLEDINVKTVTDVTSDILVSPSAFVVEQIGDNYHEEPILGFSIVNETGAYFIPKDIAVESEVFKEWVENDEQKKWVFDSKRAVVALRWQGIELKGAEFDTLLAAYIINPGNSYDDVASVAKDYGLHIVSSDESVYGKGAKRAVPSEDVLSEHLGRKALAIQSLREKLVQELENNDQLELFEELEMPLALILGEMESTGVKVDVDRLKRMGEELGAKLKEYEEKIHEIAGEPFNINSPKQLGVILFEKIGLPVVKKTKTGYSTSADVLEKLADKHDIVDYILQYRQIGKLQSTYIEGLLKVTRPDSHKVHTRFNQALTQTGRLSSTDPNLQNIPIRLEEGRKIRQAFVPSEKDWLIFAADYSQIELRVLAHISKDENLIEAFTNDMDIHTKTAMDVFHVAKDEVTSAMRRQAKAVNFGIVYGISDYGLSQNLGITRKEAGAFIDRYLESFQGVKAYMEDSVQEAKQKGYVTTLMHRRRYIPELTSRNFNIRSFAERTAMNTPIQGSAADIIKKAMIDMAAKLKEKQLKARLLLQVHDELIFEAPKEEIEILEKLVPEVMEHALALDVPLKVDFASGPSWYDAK

Row | Molecule | Expected characteristics: inhibition of polymerase activity [1] | Observed characteristics: inhibition of polymerase activity [2] | Observed characteristics: inhibition of polymerase activity [3] | Observed characteristics: inhibition of polymerase activity [4] | Observed characteristics: inhibition of polymerase activity [5] | Expected characteristics: inhibition of polymerase activity [6] | Expected characteristics: inhibition of polymerase activity [7] | Total DNA synthesis on circular singly primed M13mp18 ssDNA, lane 3 (Pol III-L, S. aureus beta and E. coli clamp loader complex; lane 1 Pol III-L alone 0.6 pmol) [8] | binding result [9]
1 | O=C(O)c1cc[c]([Hg][Cl])cc1 [pCMB] | inhibited** (Inhibited is defined as less than 40% remaining activity) | not inhibited (Not inhibited is defined as greater than 75% remaining activity) | inhibited (Inhibited is defined as less than 40% remaining activity) | inhibited (Inhibited is defined as less than 40% remaining activity) | inhibited (Inhibited is defined as less than 40% remaining activity) | inhibited (Inhibited is defined as less than 40% remaining activity) | not inhibited* (Not inhibited is defined as greater than 75% remaining activity) | – | –
2 | CCN1C(=O)C=CC1=O [NEM] | not inhibited (Not inhibited is defined as greater than 75% remaining activity) | not inhibited (Not inhibited is defined as greater than 75% remaining activity) | inhibited (Inhibited is defined as less than 40% remaining activity) | inhibited (Inhibited is defined as less than 40% remaining activity) | not inhibited (Not inhibited is defined as greater than 75% remaining activity) | inhibited (Inhibited is defined as less than 40% remaining activity) | not inhibited (Not inhibited is defined as greater than 75% remaining activity) | – | –
3 | Escherichia coli clamp loader complex (gamma complex: gamma, delta, delta prime, chi, psi) (from UniProt P06710 2-431; P28630 1-343; P28631 1-334; P28905 1-147; P28632 1-137) | – | – | – | – | – | – | – | 0.99 pmol | –
4 | B1 | – | – | – | – | – | – | – | – | binds
